Experimental data taken from ChEMBL document CHEMBL1142923, “Novel chiral isoxazole derivatives: synthesis and pharmacological characterization at human beta-adrenergic receptor subtypes” (Bioorg Med Chem, 2007).

Columns and labels:
[1] = target: T1, Beta-3 adrenergic receptor (Homo sapiens, UniProt P13945); assay: Efficacy at human adrenergic beta 3 receptor transfected in CHO cells assessed as stimulation of adenylyl cyclase at 100 uM relative to isoproterenol; type: functional, cell-based
Target sequence in this assay (P13945 whole entry, looked up): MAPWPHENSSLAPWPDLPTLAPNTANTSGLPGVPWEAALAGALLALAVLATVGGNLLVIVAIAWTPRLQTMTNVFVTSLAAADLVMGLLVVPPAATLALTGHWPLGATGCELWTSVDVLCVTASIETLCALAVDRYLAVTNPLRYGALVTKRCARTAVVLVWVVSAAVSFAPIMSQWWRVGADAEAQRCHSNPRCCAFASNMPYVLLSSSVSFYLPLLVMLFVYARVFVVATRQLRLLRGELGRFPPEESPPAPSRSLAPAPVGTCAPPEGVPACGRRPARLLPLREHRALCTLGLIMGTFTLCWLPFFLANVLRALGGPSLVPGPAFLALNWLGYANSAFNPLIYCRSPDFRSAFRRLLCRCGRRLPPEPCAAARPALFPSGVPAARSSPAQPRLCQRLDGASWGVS

[2] = target: Beta-1 adrenergic receptor (Homo sapiens, UniProt P08588); assay: Displacement of [125I]CYP from human adrenergic beta 1 receptor transfected in CHO cells in presence of 100 uM GTP; type: cell-based
Sequence of Beta-1 adrenergic receptor (P08588 whole entry): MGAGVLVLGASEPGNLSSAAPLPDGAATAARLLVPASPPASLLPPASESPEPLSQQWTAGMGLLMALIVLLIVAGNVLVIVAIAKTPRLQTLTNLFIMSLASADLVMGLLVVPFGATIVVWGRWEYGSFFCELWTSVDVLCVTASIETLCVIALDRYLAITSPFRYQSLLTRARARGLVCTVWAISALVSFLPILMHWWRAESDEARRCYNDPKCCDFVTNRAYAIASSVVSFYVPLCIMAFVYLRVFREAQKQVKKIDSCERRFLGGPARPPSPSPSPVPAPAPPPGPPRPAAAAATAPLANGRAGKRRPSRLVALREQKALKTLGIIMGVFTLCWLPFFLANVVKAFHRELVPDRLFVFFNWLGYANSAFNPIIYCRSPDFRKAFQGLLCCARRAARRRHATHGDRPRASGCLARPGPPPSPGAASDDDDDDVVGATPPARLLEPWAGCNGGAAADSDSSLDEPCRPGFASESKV

[3] = target: Beta-2 adrenergic receptor (Homo sapiens, UniProt P07550); assay: Displacement of [125I]CYP from human adrenergic beta 2 receptor transfected in CHO cells in presence of 100 uM GTP; type: cell-based
Sequence of Beta-2 adrenergic receptor (P07550 whole entry): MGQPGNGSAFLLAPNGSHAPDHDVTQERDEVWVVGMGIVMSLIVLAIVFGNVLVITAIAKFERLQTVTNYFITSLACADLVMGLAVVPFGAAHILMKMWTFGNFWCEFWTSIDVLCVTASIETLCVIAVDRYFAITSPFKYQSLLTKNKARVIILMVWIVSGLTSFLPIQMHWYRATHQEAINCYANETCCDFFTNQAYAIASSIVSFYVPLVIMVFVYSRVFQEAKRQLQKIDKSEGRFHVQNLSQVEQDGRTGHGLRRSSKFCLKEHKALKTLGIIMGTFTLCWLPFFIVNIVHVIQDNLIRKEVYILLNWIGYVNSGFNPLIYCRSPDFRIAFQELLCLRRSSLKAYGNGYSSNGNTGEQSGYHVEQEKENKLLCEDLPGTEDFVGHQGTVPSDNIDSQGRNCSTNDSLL

[4] = target: T1, Beta-3 adrenergic receptor; assay: Displacement of [125I]CYP from human adrenergic beta 3 receptor transfected in CHO cells in presence of 100 uM GTP; type: cell-based
Target sequence in this assay (P13945 whole entry): as the sequence (P13945 whole entry, looked up) above

| SMILES | Efficacy [1] | Ki [2] | Ki [3] | Ki [4] |
| --- | --- | --- | --- | --- |
| CCOC(=O)COc1ccc(C[C@@H](C)NC[C@H](O)c2cc(Br)no2)cc1 | 56% | 23.2 nM | 2.82 nM | 10100 nM |
| CCCCOc1ccc(C[C@@H](C)NC[C@@H](O)c2cc(Br)no2)cc1 | 31% | 2160 nM | 458 nM | 10700 nM |
| C[C@H](Cc1ccc(OCC(=O)O)cc1)NC[C@H](O)c1cc(Br)no1 | 50% | 61.1 nM | 13.9 nM | 22000 nM |
| CCOC(=O)COc1ccc(C[C@@H](C)NC[C@@H](O)c2cc(Br)no2)cc1 | 39% | 1110 nM | 81.4 nM | 21800 nM |
| CCCCOc1ccc(C[C@@H](C)NC[C@H](O)c2cc(Br)no2)cc1 | 51% | 66.7 nM | 15.5 nM | 2490 nM |
| C[C@H](Cc1ccc(OCC(=O)O)cc1)NC[C@H](O)c1cccc(Cl)c1 (racemic) |  |  | 2850 nM |  |
| CC(C)(C)NCC(O)c1cc(NS(C)(=O)=O)no1 (racemic) |  | > 100000 nM | > 100000 nM | > 100000 nM |
| C[C@H](Cc1ccc(OCC(=O)O)cc1)NC[C@@H](O)c1cc(Br)no1 | 34% | 6460 nM | 501 nM | > 50000 nM |
